Laboratory results from ChEMBL document CHEMBL4376882, “Photodynamic Therapy for ras-Driven Cancers: Targeting G-Quadruplex RNA Structures with Bifunctional Alkyl-Modified Porphyrins” (J Med Chem, 2020).
Calls of active or inactive are those of the source. No cut-off for these calls is given here.

How the values were obtained:
Quadruplex DNA [1] = assay: Binding affinity to human KRAS utr-z RNA g-quadruplex assessed as compound-RNA complex stoichiometry ratio of 1:1 by Job's plot analysis; format: nucleic-acid assay
[2] = Binding affinity to 20-mer stem-loop RNA (unknown origin) assessed as compound-RNA complex stoichiometry ratio of 2:1 by Job's plot analysis
Quadruplex DNA [3] = assay: Binding affinity to human KRAS utr-z RNA g-quadruplex assessed as compound-RNA complex stoichiometry ratio of 4:1 by Job's plot analysis; format: nucleic-acid assay
[4] = Drug uptake in human PANC1 cells at 5 uM after 16 hrs by FACS analysis; format: ADME, cell-based; settings: panc-1, 16 h
[5] = Drug uptake in human PANC1 cells in presence of dynamin-inhibitor dynasore; format: ADME, cell-based; settings: panc-1
Quadruplex DNA [6] = assay: Binding affinity to NRAS RNA g-quadruplex (unknown origin) by fluorescence spectroscopy; format: nucleic-acid assay
Quadruplex DNA [7] = assay: Binding affinity to human KRAS utr-c RNA g-quadruplex by fluorescence spectroscopy; format: nucleic-acid assay
Quadruplex DNA [8] = assay: Binding affinity to human KRAS utr-1 RNA g-quadruplex by fluorescence spectroscopy; format: nucleic-acid assay
[9] = Drug uptake in human PANC1 cells at 5 uM after 2 hrs by FACS analysis; format: ADME, cell-based; settings: panc-1, 2 h
Quadruplex DNA [10] = assay: Binding affinity to human KRAS utr-z RNA g-quadruplex by fluorescence spectroscopy; format: nucleic-acid assay
[11] = Binding affinity to NRAS RNA g-quadruplex (unknown origin) at 40 degree C by SPR analysis; format: nucleic-acid assay
Quadruplex DNA [12] = assay: Binding affinity to human KRAS utr-z RNA g-quadruplex at 40 degree C by SPR analysis; format: nucleic-acid assay
PANC-1 [13] = assay: Cytotoxicity against human PANC1 cells assessed as reduction in metabolic activity at 20 nM after 24 to 72 hrs in dark followed by photoirradiation in presence of NADH by resazurin assay; format: functional, cell-based
HEK293 = assay: Cytotoxicity against human HEK293 cells assessed as reduction in metabolic activity after 24 to 72 hrs in dark followed by photoirradiation in presence of NADH by resazurin assay; format: ADME, cell-based
MIA PaCa-2 = assay: Cytotoxicity against human MIAPaCa2 cells harboring G12C point mutation assessed as reduction in metabolic activity after 48 hrs in dark followed by photoirradiation in presence of NADH by resazurin assay; format: functional, cell-based
PANC-1 [14] = assay: Cytotoxicity against human PANC1 cells assessed as reduction in metabolic activity at 20 nM after 24 to 72 hrs in dark followed by photoirradiation in presence of NADH and NAC by resazurin assay; format: functional, cell-based
PANC-1 [15] = assay: Cytotoxicity against human PANC1 cells assessed as reduction in metabolic activity after 48 hrs in dark followed by photoirradiation in presence of NADH by resazurin assay; format: functional, cell-based; settings: PANC-1, light or radiation study
PANC-1 [16] = assay: Antitumor activity against human PANC1 cells xenografted in SCID mouse assessed as reduction in tumor growth at 30 mg/kg administered intratumorally measured after 14 days by micrometer caliper method; format: functional, organism-based
PANC-1 [17] = assay: Photodynamic antitumor activity against human PANC1 cells xenografted in SCID mouse assessed as reduction in tumor growth at 30 mg/kg administered intratumorally after 2 hrs photoirradiated by diode laser at 193 J/cm2 measured after 14 days by micrometer caliper method; format: functional, organism-based

C[n+]1ccc(-c2c3nc(c(-c4cc[n+](C)cc4)c4ccc([nH]4)c(-c4cc[n+](C)cc4)c4ccc([nH]4)c(-c4cc[n+](C)cc4)c4nc2C=C4)C=C3)cc1
Activity (Quadruplex DNA [1]): Active | Activity [2]: Active | Activity (Quadruplex DNA [3]): Active

C[n+]1ccc(-c2c3nc(c(-c4cc[n+](C)cc4)c4ccc([nH]4)c(-c4cc[n+](C)cc4)c4nc(c(-c5cc[n+](C)cc5)c5ccc2[nH]5)C=C4)C=C3)cc1.[Cl-].[Cl-].[Cl-].[Cl-] [TMPYP4 CHLORIDE]
Drug uptake [4]: Active | Drug uptake [5]: Active | Kd (Quadruplex DNA [6]): 301 nM | Kd (Quadruplex DNA [7]): 1020 nM | Kd (Quadruplex DNA [8]): 454 nM | Drug uptake [9]: Not Active | Kd (Quadruplex DNA [10]): 681 nM

CCCCCCCCCCCCCCCC[n+]1ccc(-c2c3nc(c(-c4cc[n+](C)cc4)c4ccc([nH]4)c(-c4cc[n+](C)cc4)c4nc(c(-c5cc[n+](C)cc5)c5ccc2[nH]5)C=C4)C=C3)cc1.[I-].[I-].[I-].[I-]
Kd [11]: 56 to 98 nM | Kd (Quadruplex DNA [12]): 82 to 202 nM | Activity (PANC-1 [13]): Active | Activity (HEK293): Non-Toxic | Activity (MIA PaCa-2): Active | Activity (PANC-1 [14]): inactive | EC50 (PANC-1 [15]): 19.2 nM

C[n+]1ccccc1-c1c2nc(c(-c3cccc[n+]3C)c3ccc([nH]3)c(-c3cccc[n+]3C)c3ccc([nH]3)c(-c3cccc[n+]3C)c3nc1C=C3)C=C2.[Cl-].[Cl-].[Cl-].[Cl-]
Drug uptake [4]: Active | Activity (PANC-1 [16]): inactive | Drug uptake [9]: Not Active | Activity (PANC-1 [17]): inactive
